Test results published in PubChem BioAssay (NCI).
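Values below derive from 48-hour exposures of cells grown in 96-well plates, with endpoints linearly interpolated between the two concentrations bracketing the appropriate inhibition level. The concentration for full growth arrest is given as TGI.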

Assays:
Assay in all cases: NCI tumour cell line growth inhibition, 48 h
[1] = system: ACHN renal
[2] = system: HCT-116 colon
[3] = system: HCT-15 colon
[4] = system: HL-60(TB) leukemia
[5] = system: HOP-62 NSCLC
[6] = system: M14 melanoma
[7] = system: MDA-N
[8] = system: NCI-H226 lung
[9] = system: NCI-H460 lung
[10] = system: NCI/ADR-RES ovarian
[11] = system: OVCAR-3 ovarian
[12] = system: OVCAR-4 ovarian
[13] = system: SK-MEL-2 melanoma
[14] = system: SK-MEL-28 melanoma
[15] = system: SK-MEL-5 melanoma
[16] = system: SN12C renal
[17] = system: SNB-75 CNS
[18] = system: SW-620 colon
[19] = system: U251 CNS
[20] = system: UACC-257 melanoma

Structure (SMILES)	TGI [1] [µM]	TGI [2] [µM]	TGI [3] [µM]	TGI [4] [µM]	TGI [5] [µM]	TGI [6] [µM]	TGI [7] [µM]	TGI [8] [µM]	TGI [9] [µM]	TGI [10] [µM]	TGI [11] [µM]	TGI [12] [µM]	TGI [13] [µM]	TGI [14] [µM]	TGI [15] [µM]	TGI [16] [µM]	TGI [17] [µM]	TGI [18] [µM]	TGI [19] [µM]	TGI [20] [µM]
Cc1nc2ccccc2n1Cc1nnc2n1N=C(c1ccccc1)CS2	> 100	> 100	> 100	95.3	> 100	> 100	> 100	> 100	> 100	> 100	> 100	> 100	40.7	> 100	> 100	> 100	59	> 100	> 100	65.3
Cc1ccc(S(=O)(=O)N2CCCSCCN(S(=O)(=O)c3ccc(C)cc3)CCCSCC2)cc1	> 100	> 100	–	> 100	> 100	> 100	> 100	> 100	> 100	> 100	> 100	> 100	> 100	> 100	> 100	> 100	> 100	> 100	> 100	> 100
O=[p+]1c2ccccc2[nH]c2ccccc21	> 100	> 100	> 100	> 100	> 100	> 100	> 100	> 100	> 100	> 100	> 100	> 100	> 100	> 100	> 100	> 100	> 100	> 100	> 100	> 100
CCCCCCCCCCCCCCCCOc1ccc(/C=C/C2=[N+](CCCl)CCO2)cc1	> 100	> 100	> 100	98.6	> 100	> 100	> 100	> 100	> 100	> 100	> 100	> 100	> 100	> 100	> 100	> 100	> 100	> 100	> 100	> 100
Cc1nc2cccc([N+](=O)[O-])c2n1CCCN(C)C	> 100	> 100	> 100	> 100	> 100	> 100	> 100	> 100	> 100	> 100	> 100	> 100	> 100	> 100	> 100	> 100	> 100	> 100	> 100	> 100
COCn1c(C)c(C)c2c(=O)oc(C)nc21	> 100	> 100	> 100	> 100	> 100	> 100	> 100	> 100	> 100	> 100	–	> 100	> 100	> 100	> 100	> 100	> 100	> 100	> 100	> 100
Cc1ccc(C)c(COCCOCn2c(=O)[nH]c(=O)c3cc(Br)ccc32)c1	> 100	> 100	> 100	> 100	> 100	> 100	> 100	> 100	> 100	> 100	> 100	> 100	> 100	> 100	–	> 100	> 100	> 100	> 100	> 100
CCOP(C)(=O)/C(Cc1ccc(OC)c(OC)c1)=N\O (stereo not drawn)	> 100	> 100	> 100	> 100	> 100	> 100	> 100	> 100	> 100	> 100	> 100	> 100	> 100	> 100	> 100	> 100	> 100	> 100	> 100	–
CC(=O)OCCOCCN1CCN(c2c(O)c3c(c(O)c2Cl)C(=O)C=CC3=O)CC1	0.757	0.72	1.23	0.238	7.1	1.48	1.79	5.89	–	1.21	2	1.32	3.26	2.22	2.97	1.77	3.71	0.475	4.1	2.38
Cc1ccc([N+](=O)[O-])cc1S(=O)(=O)Nc1ccc(C2=NN(S(=O)(=O)c3cc([N+](=O)[O-])ccc3C)C(c3ccco3)C2)cc1 (stereo not drawn)	> 100	> 100	> 100	98.2	> 100	> 100	> 100	> 100	–	> 100	> 100	> 100	> 100	> 100	> 100	> 100	> 100	> 100	–	45.6
